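Growth conditions: 96-well plates. Treatment: test compound, 48 hours, 5 concentrations. Analysis: linear interpolation between bracketing concentrations; unreached endpoints set to highest concentration. GI50 is the concentration that inhibits growth by half. At the TGI there is no net growth.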 Some results are limits rather than exact numbers.

Our source for the TGI and GI50 values is PubChem BioAssay (NCI).

In the first test the test system is HOP-92 NSCLC. In words: NCI-60 cell line screen, 48 h.
`CC1(C)CC(C#Cc2ccccc2)CC(C)(C)N1O` had a TGI of 45 µM.
Same read-out and setting: for `CCNc1ncnc2sc(SCc3ccccc3)nc12` the value was 81 µM.
Still for that read-out and setting: for `CC1(C)N=C2C(=O)c3c([nH]c4ccccc34)[C@]3(C)CCC1CC23` (some centres undefined) the value was above 6.25 µM.
On the same count and under the same terms, for `CCN1C(=O)C(=C/C=C/c2ccc(N(CC)CC)cc2)C(=O)N(CC)C1=S` the value was above 100 µM.
`COc1ccc(NC(C)c2ccncc2)cc1` (centres undefined) displayed a TGI above 100 µM.
As to `CC(C)=CCC[C@@H](C)C1=C(O)C(N)=C(C)C(=O)C1=O`, the TGI was above 100 µM.

Another test concerns ACHN renal. In words: NCI-60 cell line screen, 48 h.
Turning to `COc1cc2[nH]c(-c3ccccc3)cc(=O)c2c(OC)c1OC`, the TGI was above 100 µM.
Same read-out and setting: for `CCOP(=O)(OCC)OC1CC(n2cc(C)c(=O)n(C)c2=O)OC1CO[Si](C)(C)C(C)(C)C` (centres undefined) the value was above 100 µM.
On the same count and under the same terms, for `COc1ccc(N2C(=O)C3c4[nH]c5ccccc5c4C4CCCCCCCCCC4C3C2=O)cc1` (centres undefined) the value was above 10 µM; for `CC(C)C(N)C(=O)NC(CCC(=O)NCCCCC(N)C(=O)NCCCNc1ccc([N+](=O)[O-])c2[nH]c3ccccc3c(=O)c12)C(N)=O` (centres undefined), above 100 µM.
On the same count and under the same terms, for `CC#CC(O)(C(=O)OC1CC(C)N(C)C(C)(C)C1)C1CCCC1` (centres undefined) the value was above 100 µM.
With `CC1(C)OC2COC3([C@@H]4OC(C)(C)O[C@@H]4CO)OC(C)(C)OC3C2O1` (some centres undefined), the TGI was above 100 µM.
`COc1cc(/C=C2\CCC(C)/C(=C\c3cc(OC)c(OC)c(OC)c3)C2=O)cc(OC)c1OC` (centres undefined) gave a TGI of 13.1 µM.
Consider `COC(=O)[C@H](Cc1ccccc1)NC(=O)N(CCC#N)CCN(C(=O)N[C@@H](Cc1ccccc1)C(=O)OC)c1ccccc1`, for which the TGI amounted to 33.9 µM.
`Nc1nc(Nc2ccccc2)sc1C(=O)c1ccco1` returned a TGI of 62.2 µM.
Still for that read-out and setting: in the case of `Cc1cc(NS(=O)(=O)c2ccc(NC(NC(=O)C(C(F)(F)F)C(F)(F)F)(C(F)(F)F)C(F)(F)F)cc2)no1` it was above 100 µM.
Same read-out and setting: for `C/C(=N\Nc1nc2ccccc2s1)c1ccc2ccccc2n1` the value was above 100 µM; for `O=[N+]([O-])/C(Cl)=C(\NCCN/C(C(Cl)=C(Cl)Cl)=C(/Cl)[N+](=O)[O-])C(Cl)=C(Cl)Cl`, above 100 µM.
The same measure, in the same setting: in the case of `CC1(C)CC(C#Cc2ccccc2)CC(C)(C)N1O` it was above 100 µM.
In turn, `CCNc1ncnc2sc(SCc3ccccc3)nc12` registered a TGI above 100 µM.
The same measure, in the same setting: for `CC1(C)N=C2C(=O)c3c([nH]c4ccccc34)[C@]3(C)CCC1CC23` (some centres undefined) the value was above 6.25 µM; for `CCN1C(=O)C(=C/C=C/c2ccc(N(CC)CC)cc2)C(=O)N(CC)C1=S`, above 100 µM; for `COc1ccc(NC(C)c2ccncc2)cc1` (centres undefined), above 100 µM.
The same measure, in the same setting: for `C/C(=C\CO)CC/C=C(\C)CNc1ccc([N+](=O)[O-])cc1` the value was above 100 µM.
On to `CC(C)=CCC[C@@H](C)C1=C(O)C(N)=C(C)C(=O)C1=O`, for which the TGI was determined as 65.4 µM.
As to `c1ccc(C2CC(=NC3CCCCC3)Nc3ccccc3N2)cc1` (centres undefined), the TGI is above 100 µM.

The next test concerns COLO 205 colon. In words: NCI-60 cell line screen, 48 h.
In turn, `COc1cc2[nH]c(-c3ccccc3)cc(=O)c2c(OC)c1OC` showed a TGI above 100 µM.
Still for that read-out and setting: for `CCOP(=O)(OCC)OC1CC(n2cc(C)c(=O)n(C)c2=O)OC1CO[Si](C)(C)C(C)(C)C` (centres undefined) the value was above 100 µM; for `COc1ccc(N2C(=O)C3c4[nH]c5ccccc5c4C4CCCCCCCCCC4C3C2=O)cc1` (centres undefined), above 10 µM; for `COc1cccc2c1OCC1Cc3ccccc3OC21` (centres undefined), 96.1 µM.
On the same count and under the same terms, in the case of `CC(C)C(N)C(=O)NC(CCC(=O)NCCCCC(N)C(=O)NCCCNc1ccc([N+](=O)[O-])c2[nH]c3ccccc3c(=O)c12)C(N)=O` (centres undefined) it was above 100 µM; in that of `CC#CC(O)(C(=O)OC1CC(C)N(C)C(C)(C)C1)C1CCCC1` (centres undefined), above 100 µM.
On the same count and under the same terms, for `CC1(C)OC2COC3([C@@H]4OC(C)(C)O[C@@H]4CO)OC(C)(C)OC3C2O1` (some centres undefined) the value was above 100 µM; for `COc1cc(/C=C2\CCC(C)/C(=C\c3cc(OC)c(OC)c(OC)c3)C2=O)cc(OC)c1OC` (centres undefined), 5.2 µM.
Molecule `COC(=O)[C@H](Cc1ccccc1)NC(=O)N(CCC#N)CCN(C(=O)N[C@@H](Cc1ccccc1)C(=O)OC)c1ccccc1` displayed a TGI of 56.2 µM.
On the same count and under the same terms, for `Nc1nc(Nc2ccccc2)sc1C(=O)c1ccco1` the value was 27.8 µM; for `Cc1cc(NS(=O)(=O)c2ccc(NC(NC(=O)C(C(F)(F)F)C(F)(F)F)(C(F)(F)F)C(F)(F)F)cc2)no1`, above 100 µM; for `C/C(=N\Nc1nc2ccccc2s1)c1ccc2ccccc2n1`, above 100 µM.
On the same count and under the same terms, for `O=[N+]([O-])/C(Cl)=C(\NCCN/C(C(Cl)=C(Cl)Cl)=C(/Cl)[N+](=O)[O-])C(Cl)=C(Cl)Cl` the value was above 100 µM; for `CC1(C)CC(C#Cc2ccccc2)CC(C)(C)N1O`, 49.4 µM; for `CCNc1ncnc2sc(SCc3ccccc3)nc12`, above 100 µM.
On the same count and under the same terms, for `CC1(C)N=C2C(=O)c3c([nH]c4ccccc34)[C@]3(C)CCC1CC23` (some centres undefined) the value was above 6.25 µM; for `CCN1C(=O)C(=C/C=C/c2ccc(N(CC)CC)cc2)C(=O)N(CC)C1=S`, above 100 µM.
For the molecule `COc1ccc(NC(C)c2ccncc2)cc1` (centres undefined), the TGI was above 100 µM.
On the same count and under the same terms, in the case of `C/C(=C\CO)CC/C=C(\C)CNc1ccc([N+](=O)[O-])cc1` it was above 100 µM.
In the case of `CC(=O)Oc1c(C)c(C)c2c(c1C)CCC(C)(CC(=O)OCCCCCCCCCCC[P+](c1ccccc1)(c1ccccc1)c1ccccc1)O2` (centres undefined), the GI50 is 0.391 µM and the TGI is 1.39 µM.
For the molecule `CC(C)=CCC[C@@H](C)C1=C(O)C(N)=C(C)C(=O)C1=O`, the TGI was above 100 µM.
In the case of `c1ccc(C2CC(=NC3CCCCC3)Nc3ccccc3N2)cc1` (centres undefined), the TGI was above 100 µM.
